Results: ChEMBL document CHEMBL6071136, “Discovery of macrocyclic covalent inhibitors for severe acute respiratory syndrome coronavirus 2 3CL protease” (Bioorg Med Chem, 2024)

What was measured:
[1] = Apparent permeability across apical to basolateral side in human Caco-2 cells incubated for 2 hrs by LC-MS/MS analysis; format: ADME, cell-based
[2] = Metabolic stability in rat liver microsomes assessed as half life measured upto 60 mins in presence of NADPH by LC/MS-MS analysis; format: ADME, Microsome
[3] = AUClast in Sprague-Dawley rat at 10 mg/kg, po measured upto 24 hrs by LC/MS-MS analysis; format: ADME, organism-based; details: in vivo
[4] = Metabolic stability in human liver microsomes assessed as half life measured upto 60 mins in presence of NADPH by LC/MS-MS analysis; format: ADME, Microsome
[5] = Cmax in Sprague-Dawley rat at 10 mg/kg, po measured upto 24 hrs by LC/MS-MS analysis; format: ADME, organism-based; details: in vivo
[6] = Half-life in Sprague-Dawley rat at 10 mg/kg, po measured upto 24 hrs by LC/MS-MS analysis; format: ADME, organism-based; details: in vivo
SARS-CoV-2 = test: microbe, parasite or virus in culture; details: Severe acute respiratory syndrome coronavirus 2, Huh-7, 24 h
[7] = target: Replicase polyprotein 1ab (Severe acute respiratory syndrome coronavirus 2, UniProt P0DTD1); test: Inhibition of SARS-CoV-2 3CL protease using Dabcyl-KTSAVLQSGFRKM-(Edans) as substrate preincubated for 30 mins followed by substrate addition and measured after 60 mins by fluorescence based microplate reader assay
[8] = Efflux ratio of apparent permeability across basolateral to apical side over apical to basolateral side in human Caco-2 cells; format: ADME, cell-based
[9] = Metabolic stability in human liver S9 fraction assessed as half life measured upto 60 mins by LC/MS-MS analysis; format: ADME, subcellular
[10] = Cmax in Sprague-Dawley rat at 50 mg/kg, po measured upto 24 hrs by LC/MS-MS analysis; format: ADME, organism-based; details: in vivo
[11] = Tmax in Sprague-Dawley rat at 10 mg/kg, po measured upto 24 hrs by LC/MS-MS analysis; format: ADME, organism-based; details: in vivo
[12] = Tmax in Sprague-Dawley rat at 50 mg/kg, po measured upto 24 hrs by LC/MS-MS analysis; format: ADME, organism-based; details: in vivo
[13] = Half-life in Sprague-Dawley rat at 50 mg/kg, po measured upto 24 hrs by LC/MS-MS analysis; format: ADME, organism-based; details: in vivo
[14] = AUClast in Sprague-Dawley rat at 50 mg/kg, po measured upto 24 hrs by LC/MS-MS analysis; format: ADME, organism-based; details: in vivo
[15] = Stability of compound in FaSSGF at 10 uM measured after 4 hrs by LC-MS analysis; format: physicochemical

| SMILES | Papp A→B at 2 h [1] [×10⁻⁶ cm/s] | half-life [4] [min] | EC50 (SARS-CoV-2) [nM] | IC50 [7] [nM] | efflux ratio [8] | other results |
| --- | --- | --- | --- | --- | --- | --- |
| CC(C)(C)[C@H](NC(=O)C(F)(F)F)C(=O)N1C[C@H]2[C@@H]([C@H]1C(=O)N[C@H](C#N)C[C@@H]1CCNC1=O)C2(C)C | 0.27 | 20.6 | – | – | – | half-life [2]: 127 min; AUC(0-t) at 24 h [3]: 2020 ng·h/mL; Cmax [5]: 2840 ng/mL; half-life [6]: 76.2 min |
| CC1(C)CCCC[C@@H]2C[C@@H](C[C@@H](C#N)NC(=O)[C@@H]3[C@@H]4[C@H](CN3C(=O)[C@H]1NC(=O)C(F)(F)F)C4(C)C)C(=O)N2 | – | 4.4 | 84 | 10 | – | – |
| CC1(C)CNC(=O)[C@@H]2C[C@@H](C[C@@H](C#N)NC(=O)[C@@H]3[C@@H]4[C@H](CN3C(=O)[C@H]1NC(=O)COc1ccc(F)cc1F)C4(C)C)C(=O)N2 | – | 6.3 | 1550 | 70 | – | – |
| CC1(C)COC(=O)[C@@H]2C[C@@H](C[C@@H](C#N)NC(=O)[C@@H]3[C@@H]4[C@H](CN3C(=O)[C@H]1NC(=O)C1CC1)C4(C)C)C(=O)N2 | 0.08 | 154 | 190 | 12 | 22 | half-life [9]: > 180 min |
| CC1(C)COC(=O)[C@@H]2C[C@@H](C[C@@H](C#N)NC(=O)[C@@H]3[C@@H]4[C@H](CN3C(=O)[C@H]1NC(=O)C(F)(F)c1ccc(F)cc1)C4(C)C)C(=O)N2 | 0.1 | 6 | 130 | 22 | 206 | – |
| CC1(C)CNC(=O)[C@@H]2C[C@@H](C[C@@H](C#N)NC(=O)[C@@H]3[C@@H]4[C@H](CN3C(=O)[C@H]1NC(=O)C1CC1)C4(C)C)C(=O)N2 | – | > 180 | 6570 | 32 | – | – |
| CC1(C)CCCC[C@@H]2C[C@@H](C[C@@H](C#N)NC(=O)[C@@H]3[C@@H]4[C@H](CN3C(=O)[C@H]1NC(=O)OCc1ccccc1)C4(C)C)C(=O)N2 | – | – | 31 | 27 | – | – |
| CC1(C)COC(=O)[C@@H]2C[C@@H](C[C@@H](C#N)NC(=O)[C@@H]3[C@@H]4[C@H](CN3C(=O)[C@H]1NC(=O)CC1CC1)C4(C)C)C(=O)N2 | – | 78 | 310 | 21 | – | – |
| COC(=O)N[C@@H]1C(=O)N2C[C@H]3[C@@H]([C@H]2C(=O)N[C@H](C#N)C[C@@H]2C[C@H](NC2=O)C(=O)OCCC1(C)C)C3(C)C | 0.03 | > 180 | 179 | 8.9 | 65 | – |
| CC1(C)COC(=O)[C@@H]2C[C@@H](C[C@@H](C#N)NC(=O)[C@@H]3[C@@H]4[C@H](CN3C(=O)[C@H]1NC(=O)C(F)(F)F)C4(C)C)C(=O)N2 | 0.5 | > 180 | 181 | 34 | 34 | half-life [9]: > 180 min |
| CC1(C)CNC(=O)[C@@H]2C[C@H](C[C@@H](C#N)NC(=O)[C@@H]3[C@@H]4[C@H](CN3C(=O)[C@H]1NC(=O)OCc1ccccc1)C4(C)C)C(=O)N2 | 0.05 | – | – | 12 | 103 | – |
| COC(=O)N[C@@H]1C(=O)N2C[C@H]3[C@@H]([C@H]2C(=O)N[C@H](C#N)C[C@@H]2C[C@@H](CCCCC1(C)C)NC2=O)C3(C)C | – | 13.9 | 100 | 4.6 | – | – |
| CC1(C)CCOC(=O)[C@@H]2C[C@@H](C[C@@H](C#N)NC(=O)[C@@H]3[C@@H]4[C@H](CN3C(=O)[C@H]1NC(=O)C(F)(F)F)C4(C)C)C(=O)N2 | 0.02 | > 180 | 26 | 12 | 342 | Cmax [10]: 102 ng/mL; half-life [2]: > 180 min; Tmax [11]: 15 min; AUC(0-t) at 24 h [3]: 5.94 ng·h/mL; Tmax [12]: 20 min; half-life [13]: 28.3 min; Cmax [5]: 16.2 ng/mL; half-life [6]: 20 min; AUC(0-t) at 24 h [14]: 72.9 ng·h/mL; Stability [15]: Stable |
| CN1CC(C)(C)[C@H](NC(=O)OCc2ccccc2)C(=O)N2C[C@H]3[C@@H]([C@H]2C(=O)N[C@H](C#N)C[C@@H]2C[C@H](NC2=O)C1=O)C3(C)C | 0.17 | – | > 10000 | > 10000 | 12 | half-life [9]: 0.17 min |
| Cc1cccc(C)c1OCC(=O)N[C@@H]1C(=O)N2C[C@H]3[C@@H]([C@H]2C(=O)N[C@H](C#N)C[C@@H]2C[C@H](NC2=O)C(=O)NCC1(C)C)C3(C)C | 0.13 | 4 | 5570 | 320 | 64 | – |
| CC1(C)CNC(=O)[C@@H]2C[C@H](C[C@@H](C#N)NC(=O)[C@@H]3[C@@H]4[C@H](CN3C(=O)[C@H]1NC(=O)C(F)(F)F)C4(C)C)C(=O)N2 | 0.09 | > 180 | – | 75 | 10 | – |
| CC(C)(C)C(=O)N[C@@H]1C(=O)N2C[C@H]3[C@@H]([C@H]2C(=O)N[C@H](C#N)C[C@@H]2C[C@H](NC2=O)C(=O)NCC1(C)C)C3(C)C | – | – | – | 307 | – | – |
| COC(=O)N[C@@H]1C(=O)N2C[C@H]3[C@@H]([C@H]2C(=O)N[C@H](C#N)C[C@@H]2C[C@H](NC2=O)C(=O)OCC1(C)C)C3(C)C | 0.16 | > 180 | 52 | 8.6 | 30 | half-life [9]: > 180 min; half-life [2]: 76.2 min; Tmax [11]: 20 min; AUC(0-t) at 24 h [3]: 72.9 ng·h/mL; Cmax [5]: 87.5 ng/mL; half-life [6]: 68.4 min; Stability [15]: Stable |
| CC1(C)COC(=O)[C@@H]2C[C@@H](C[C@@H](C#N)NC(=O)[C@@H]3[C@@H]4[C@H](CN3C(=O)[C@H]1NC(=O)OC1CC1)C4(C)C)C(=O)N2 | 0.08 | > 180 | 67 | 17 | 20 | half-life [9]: > 180 min |
| CC1(C)COC(=O)[C@@H]2C[C@@H](C[C@@H](C#N)NC(=O)[C@@H]3[C@@H]4[C@H](CN3C(=O)[C@H]1NC(=O)C(F)(F)Cc1ccccc1)C4(C)C)C(=O)N2 | 0.08 | 1.7 | 49 | 23 | 154 | – |
| CN1CC(C)(C)[C@H](NC(=O)C(F)(F)F)C(=O)N2C[C@H]3[C@@H]([C@H]2C(=O)N[C@H](C#N)C[C@@H]2C[C@H](NC2=O)C1=O)C3(C)C | – | – | > 10000 | > 10000 | – | – |
| CC1(C)COC(=O)[C@@H]2C[C@@H](C[C@@H](C#N)NC(=O)[C@@H]3[C@@H]4[C@H](CN3C(=O)[C@H]1NC(=O)OCc1ccccc1)C4(C)C)C(=O)N2 | 0.16 | 6.5 | 25 | 6.4 | 108 | – |
| CC1(C)CNC(=O)[C@@H]2C[C@@H](C[C@@H](C#N)NC(=O)[C@@H]3[C@@H]4[C@H](CN3C(=O)[C@H]1NC(=O)C(F)(F)F)C4(C)C)C(=O)N2 | – | > 180 | 264 | 18 | – | – |
| CC1(C)COC(=O)[C@@H]2C[C@@H](C[C@@H](C#N)NC(=O)[C@@H]3[C@@H]4[C@H](CN3C(=O)[C@H]1NC(=O)C(F)(F)C1CC1)C4(C)C)C(=O)N2 | 0.13 | 71 | 36 | 14 | 96.4 | half-life [2]: 34.8 min; Tmax [11]: 20 min; AUC(0-t) at 24 h [3]: 119 ng·h/mL; Cmax [5]: 131 ng/mL; half-life [6]: 38.5 min |
| CC1(C)CNC(=O)[C@@H]2C[C@@H](C[C@@H](C#N)NC(=O)[C@@H]3[C@@H]4[C@H](CN3C(=O)[C@H]1NC(=O)OCc1ccccc1)C4(C)C)C(=O)N2 | – | 4.3 | 73 | 8.8 | – | half-life [2]: 4.3 min |
